This passage reports IC50 results from patent publication US20170275298A1, “INHIBITORS OF THE RENAL OUTER MEDULLARY POTASSIUM CHANNEL” (Merck Sharp & Dohme Corp., priority 2014, published 2017).

The structures appear in SMILES notation. pIC50: −log10 of the molar value.

In this assay the target is T1, hROMK (hKir1.1) (Homo sapiens, UniProt P48048).
T1 construct: expressed in transfected cells
T1 sequence (P48048 1-391): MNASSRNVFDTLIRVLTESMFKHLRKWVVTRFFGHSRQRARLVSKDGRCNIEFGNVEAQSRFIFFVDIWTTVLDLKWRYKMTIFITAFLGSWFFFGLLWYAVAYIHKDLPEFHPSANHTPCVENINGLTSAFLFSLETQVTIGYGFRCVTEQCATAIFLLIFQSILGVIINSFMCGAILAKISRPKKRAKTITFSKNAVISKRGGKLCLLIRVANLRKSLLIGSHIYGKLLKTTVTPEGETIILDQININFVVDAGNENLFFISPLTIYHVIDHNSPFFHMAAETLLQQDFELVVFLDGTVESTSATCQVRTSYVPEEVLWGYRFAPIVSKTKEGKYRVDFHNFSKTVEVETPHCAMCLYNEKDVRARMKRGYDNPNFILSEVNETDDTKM
The experiment in a line: Thallium Flux Assay (ROMK channel functional thallium flux assay). The settings on record: HEK293 cells stably expressing hROMK (hKir1.1); FluxOR thallium flux, FLIPR-Tetra, 30 min compound incubation; read-out: ROMK TI IC50. Format: cell-based. The method, then: The following Thallium Flux Assay was performed on each of the final product compounds in the Examples.
HEK293 cells stably expressing hROMK (hKir1.1) were grown at 37° C. in a 10% CO2 humidified incubator in complete growth media: Dulbecco's Modified Eagle Medium supplemented with non-essential amino acids, Penicillin/Streptomycin/Glutamine, G418 and FBS. At >80% confluency, the media was aspirated from the flask and rinsed with 10 mL calcium/magnesium-free PBS. […] To dislodge the cell, the side of the flask was gently banged with one's hand. The cells completely titrated and then the cells were transferred to 25 mL complete media, centrifuged at 1,500 rpm for 6 min followed by resuspension in complete growth media and determine cell concentration. […] Under ideal growth conditions and appropriate tissue culture practices, this cell line is stable for 40-45 passages.
• FluxOR™ Reagent (Component A) • FluxOR™ Assay Buffer (Component B)—10× Concentrate • PowerLoad™ Concentrate (Component C)—100× Concentrate • Probenecid (Component D)—Lyophilized sample is kept at −20° C. Water soluble, 100× after solubilization in 1 mL water. […] Store at 4° C. • Thallium sulfate (Tl2SO4) Concentrate (Component G)—50 mM in water. Store at 4° C. • DMSO (dimethyl sulfoxide, Component H)—1 mL (100%)
Can be stored at room temperature • Stimulant Buffer (prepared at 5× final concentration in 1×FluxOR™ Chloride-Free Buffer): 7.5 mM thallium sulfate and 0.75 mM potassium sulfate (to give a final assay concentration of 3 mM Thallium/0.3 mM potassium). Store at 4° C. when not in use. If kept sterile, this solution is good for months.
The ROMK channel functional thallium flux assay was performed in 384 wells, using the FLIPR-Tetra instrument. HEK-hKir1.1 cells were seeded in Poly-D-Lysine microplates and kept in a 37° C.-10% CO2 incubator overnight. On the day of the experiment, the growth media was replaced with the FluxOR™ reagent loading buffer and incubated, protected from light, at ambient temperature (23-25° C.) for 90 min. The loading buffer was replaced with assay buffer±test compound followed by 30 min incubation at ambient temperature, where the thallium/potassium stimulant was added to the microplate.
1. Seed HEK-hKir1.1 cells (50 μl at 20,000 cells/well) in 384-well PDL coated Microplates 2. Allow cells to adhere overnight in humidified 37° C./10% CO2 incubator 3. Completely remove cell growth media from microplate and replace with 25 μl loading buffer 4. Incubate Microplate at room temperature, protected form light, for 90 min 5. Remove loading buffer and replace with 25 μl 1× Assay Buffer±test compound. 6. Incubate microplate at room temperature, protected from light, for 30 min 7. […] Excitation=400 nm, Emission=460 & 580 nm. Collect data for ˜10 min.
The fluorescence intensity of wells containing 3 μM of a standard control ROMK inhibitor of the present invention was used to define the ROMK-sensitive component of thallium flux. Fluorescence in the presence of test compounds was normalized to control values to provide % fluorescence change.

Consider `Cc1c([C@@H](O)CN2CCC3(CC2)CCN(c2ccnc(N(C)C)n2)C3=O)ccc2c1COC2=O` [Example 43, (R)-2-(2-(dimethylamino)pyrimidin-4-yl)-8-(2-hydroxy-2-(4-methyl-1-oxo-1,3-dihydroisobenzofuran-5-yl)ethyl)-2,8-diazaspiro[4.5]decan-1-one], for which the pIC50 is 6.28.

`CCOc1nccc(N2CCC3(CCN(C[C@H](O)c4ccc5c(c4C)COC5=O)CC3)C2=O)n1` [Example 44, (R)-2-(2-ethoxypyrimidin-4-yl)-8-(2-hydroxy-2-(4-methyl-1-oxo-1,3-dihydroisobenzofuran-5-yl)ethyl)-2,8-diazaspiro[4.5]decan-1-one]: the negative-log IC50 (pIC50) is 7.18.

Consider `CCc1nccc(N2CCC3(CCN(C[C@H](O)c4ccc5c(c4C)COC5=O)CC3)C2=O)n1` [Example 45, (R)-2-(2-ethylpyrimidin-4-yl)-8-(2-hydroxy-2-(4-methyl-1-oxo-1,3-dihydroisobenzofuran-5-yl)ethyl)-2,8-diazaspiro[4.5]decan-1-one], for which the negative logarithm of the IC50 (pIC50) was 6.45.

`Cc1c([C@@H](O)CN2CCC3(CC2)CCN(c2ccnc(N)n2)C3=O)ccc2c1COC2=O` [Example 46, (R)-2-(2-aminopyrimidin-4-yl)-8-(2-hydroxy-2-(4-methyl-1-oxo-1,3-dihydroisobenzofuran-5-yl)ethyl)-2,8-diazaspiro[4.5]decan-1-one]: the pIC50 is 6.31.

In the case of `CNc1nccc(N2CCC3(CCN(C[C@H](O)c4ccc5c(c4C)COC5=O)CC3)C2=O)n1` [Example 47, (R)-8-(2-hydroxy-2-(4-methyl-1-oxo-1,3-dihydroisobenzofuran-5-yl)ethyl)-2-(2-(methylamino)pyrimidin-4-yl)-2,8-diazaspiro[4.5]decan-1-one], the negative-log IC50 (pIC50) is 7.23.

In the case of `Cc1c([C@@H](O)CN2CCC3(CC2)CCN(c2cnn(C)c(=O)c2)C3=O)ccc2c1COC2=O` [Example 49, (R)-8-(2-hydroxy-2-(4-methyl-1-oxo-1,3-dihydroisobenzofuran-5-yl)ethyl)-2-(1-methyl-6-oxo-1,6-dihydropyridazin-4-yl)-2,8-diazaspiro[4.5]decan-1-one], the negative logarithm of the IC50 (pIC50) was 6.75.

Take `COc1cc(N2CCC3(CCN(C[C@H](O)c4ccc5c(c4C)COC5=O)CC3)C2=O)cnn1` [Example 50, (R)-8-(2-hydroxy-2-(4-methyl-1-oxo-1,3-dihydroisobenzofuran-5-yl)ethyl)-2-(6-methoxypyridazin-4-yl)-2,8-diazaspiro[4.5]decan-1-one]: the pIC50 is 6.32.

Regarding `CCn1nc(N2CCC3(CCN(C[C@H](O)c4ccc5c(c4C)COC5=O)CC3)C2=O)ccc1=O` [Example 51, (R)-2-(1-ethyl-6-oxo-1,6-dihydropyridazin-3-yl)-8-(2-hydroxy-2-(4-methyl-1-oxo-1,3-dihydroisobenzofuran-5-yl)ethyl)-2,8-diazaspiro[4.5]decan-1-one], the pIC50 was 7.11.

As for `Cc1c([C@@H](O)CN2CCC3(CC2)CCN(c2cc(C)c(=O)n(C)n2)C3=O)ccc2c1COC2=O` [Example 52, (R)-2-(1,5-dimethyl-6-oxo-1,6-dihydropyridazin-3-yl)-8-(2-hydroxy-2-(4-methyl-1-oxo-1,3-dihydroisobenzofuran-5-yl)ethyl)-2,8-diazaspiro[4.5]decan-1-one], the pIC50 was 6.37.

In the case of `Cc1c([C@@H](O)CN2CCC3(CC2)CCN(c2ccc(=O)n(C4CC4)n2)C3=O)ccc2c1COC2=O` [Example 53, (R)-2-(1-cyclopropyl-6-oxo-1,6-dihydropyridazin-3-yl)-8-(2-hydroxy-2-(4-methyl-1-oxo-1,3-dihydroisobenzofuran-5-yl)ethyl)-2,8-diazaspiro[4.5]decan-1-one], the negative-log IC50 (pIC50) was 7.39.

Turning to `Cc1c([C@@H](O)CN2CCC3(CC2)CCN(c2ccc(=O)n(C(F)F)c2)C3=O)ccc2c1COC2=O` [Example 54, (R)-2-(1-(difluoromethyl)-6-oxo-1,6-dihydropyridin-3-yl)-8-(2-hydroxy-2-(4-methyl-1-oxo-1,3-dihydroisobenzofuran-5-yl)ethyl)-2,8-diazaspiro[4.5]decan-1-one], the negative-log IC50 (pIC50) is 6.53.

For the compound `Cc1c([C@@H](O)CN2CCC3(CC2)CCN(c2ccc(=O)n(C(F)F)n2)C3=O)ccc2c1COC2=O` [Example 55, (R)-2-(1-(difluoromethyl)-6-oxo-1,6-dihydropyridazin-3-yl)-8-(2-hydroxy-2-(4-methyl-1-oxo-1,3-dihydroisobenzofuran-5-yl)ethyl)-2,8-diazaspiro[4.5]decan-1-one], the pIC50 was 6.87.

As to `Cc1c([C@@H](O)CN2CCC3(CC2)CCN(c2ccc(=O)n(C)n2)C3=O)ccc2c1COC2=O` [Example 56, (R)-8-(2-hydroxy-2-(4-methyl-1-oxo-1,3-dihydroisobenzofuran-5-yl)ethyl)-2-(1-methyl-6-oxo-1,6-dihydropyridazin-3-yl)-2,8-diazaspiro[4.5]decan-1-one], the pIC50 is 7.45.

With `Cc1c([C@@H](O)CN2CCC3(CC2)CC(=O)N(c2ccns2)C3)ccc2c1COC2=O` [Example 61, (R)-8-(2-hydroxy-2-(4-methyl-1-oxo-1,3-dihydroisobenzofuran-5-yl)ethyl)-2-(isothiazol-5-yl)-2,8-diazaspiro[4.5]decan-3-one], the pIC50 is 6.26.

As for `CCOC(=O)c1cc(N2CCC3(CCN(C[C@H](O)c4ccc5c(c4C)COC5=O)CC3)C2=O)on1` [Example 64, (R)-ethyl 5-(8-(2-hydroxy-2-(4-methyl-1-oxo-1,3-dihydroisobenzofuran-5-yl)ethyl)-1-oxo-2,8-diazaspiro[4.5]decan-2-yl)isoxazole-3-carboxylate], the pIC50 is 6.62.

For the compound `Cc1cc(N2CCC3(CCN(C[C@H](O)c4ccc5c(c4C)COC5=O)CC3)C2=O)sn1` [Example 66, (R)-8-(2-hydroxy-2-(4-methyl-1-oxo-1,3-dihydroisobenzofuran-5-yl)ethyl)-2-(3-methylisothiazol-5-yl)-2,8-diazaspiro[4.5]decan-1-one], the negative-log IC50 (pIC50) was 7.76.

Consider `Cc1c([C@@H](O)CN2CCC3(CC2)CCN(c2ccncn2)C3=O)ccc2c1COC2=O` [Example 67, (R)-8-(2-hydroxy-2-(4-methyl-1-oxo-1,3-dihydroisobenzofuran-5-yl)ethyl)-2-(pyrimidin-4-yl)-2,8-diazaspiro[4.5]decan-1-one], for which the pIC50 is 6.36.

Regarding `Cc1cc2c(cc1[C@@H](O)CN1CCC3(CC1)CCN(c1ccns1)C3=O)COC2=O` [Example 68, (R)-8-(2-hydroxy-2-(6-methyl-1-oxo-1,3-dihydroisobenzofuran-5-yl)ethyl)-2-(isothiazol-5-yl)-2,8-diazaspiro[4.5]decan-1-one], the negative-log IC50 (pIC50) is 6.66.

With `Cc1cc2c(cc1[C@H](O)CN1CCC3(CC1)CCN(c1ccns1)C3=O)COC2=O` [Example 69, (S)-8-(2-hydroxy-2-(6-methyl-1-oxo-1,3-dihydroisobenzofuran-5-yl)ethyl)-2-(isothiazol-5-yl)-2,8-diazaspiro[4.5]decan-1-one], the negative logarithm of the IC50 (pIC50) is 6.17.

Take `COc1cc([C@@H](O)CN2CCC3(CC2)CCN(c2ccns2)C3=O)ncc1C#N` [Example 70, (S)-6-(1-hydroxy-2-(2-(isothiazol-5-yl)-1-oxo-2,8-diazaspiro[4.5]decan-8-yl)ethyl)-4-methoxynicotinonitrile]: the pIC50 was 6.16.

With `Cc1nsc(N2CCC3(CCN(C[C@H](O)c4ccc5c(c4C)COC5=O)CC3)C2=O)n1` [Example 71, (R)-8-(2-hydroxy-2-(4-methyl-1-oxo-1,3-dihydroisobenzofuran-5-yl)ethyl)-2-(3-methyl-1,2,4-thiadiazol-5-yl)-2,8-diazaspiro[4.5]decan-1-one], the pIC50 is 7.43.

The pIC50 is the negative decadic logarithm of the IC50, by convention in mol/L.
